16 molecules from ChEMBL document CHEMBL5620370, “1,3-Thiazole derivatives as privileged structures for anti-Trypanosoma cruzi activity: Rational design, synthesis, in silico and in vitro studies” (Eur J Med Chem, 2023) can be followed below.

SMILES strings stand for the structures. The source made the active and inactive calls. The rule behind the calls is not given here.

Series [1] relates to Trypanosoma cruzi. The series can be described thus: Induction of apoptosis in Trypanosoma cruzi Y strain trypomastigotes assessed as necrosis at 1 times IC50 incubated for 24 hrs by Annexin V-FITC/7AAD staining based flow cytometry. The series is classed as functional, organism-based. (In general: A flow cytometer gives signals particle by particle.)
Series [2] in a line: Selectivity index, ratio of CC50 for cytotoxicity against mouse RAW264.7 cells to IC50 for antitrypanosomal activity against Trypanosoma cruzi Dm28 epimastigotes assessed as inhibition of parasite growth. The series is classed as toxicity, cell-based. The conditions noted are these: read-out: Ratio CC50/IC50.
Series [3] relates to Trypanosoma cruzi. Nature of the series: Antitrypanosomal activity against Trypanosoma cruzi Dm28 epimastigotes assessed as inhibition of parasite growth incubated for 96 hrs by Neubauer chamber based analysis. In kind it is functional, organism-based. The conditions noted are these: Dm28, 96 h.
Series [4] concerns Trypanosoma cruzi. Nature of the series: Induction of DNA damage in Trypanosoma cruzi Y strain trypomastigotes at 1 times IC50 incubated for 24 hrs by acridine orange staining based flow cytometry. The series is classed as functional, organism-based.
Series [5] relates to Trypanosoma cruzi. Nature of the series: Antitrypanosomal activity against Trypanosoma cruzi Tulahuen amastigotes transfected in L929 cells assessed as inhibition of parasite growth incubated for 96 hrs by CPRG based spectrophotometric analysis. The conditions noted are these: L929, 96 h. The series is classed as functional, organism-based.
The test system of series [6] is Trypanosoma cruzi. Nature of the series: Induction of apoptosis in Trypanosoma cruzi Y strain trypomastigotes assessed as early apoptosis at 2 times IC50 incubated for 24 hrs by Annexin V-FITC/7AAD staining based flow cytometry. The series is classed as functional, organism-based.
Series [7] can be described thus: Selectivity index, ratio of CC50 for cytotoxicity against mouse RAW264.7 cells to IC50 for antitrypanosomal activity against Trypanosoma cruzi Tulahuen amastigotes transfected in L929 cells assessed as inhibition of parasite growth. The conditions noted are these: read-out: Ratio CC50/IC50. In kind it is toxicity, cell-based.
In series [8] the test system is Trypanosoma cruzi. Nature of the series: Induction of DNA damage in Trypanosoma cruzi Y strain trypomastigotes at 2 times IC50 incubated for 24 hrs by acridine orange staining based flow cytometry. The series is classed as functional, organism-based.
Series [9] deals with Trypanosoma cruzi. Nature of the series: Induction of apoptosis in Trypanosoma cruzi Y strain trypomastigotes assessed as necrosis at 50.9 uM incubated for 24 hrs by Annexin V-FITC/7AAD staining based flow cytometry. The series is classed as functional, organism-based.
In series [10] the test system is Trypanosoma cruzi. Nature of the series: Induction of mitochondrial membrane potential loss in Trypanosoma cruzi Y strain trypomastigotes at 2 times IC50 incubated for 24 hrs by Rhodamine 123 staining based flow cytometry. The series is classed as organism-based.
Series [11] deals with Trypanosoma cruzi. Nature of the series: Antitrypanosomal activity against Trypanosoma cruzi Y strain trypomastigotes transfected in African green monkey Vero cells assessed as inhibition of parasite growth incubated for 24 hrs by Neubauer chamber based analysis. In kind it is functional, organism-based.
The nature of series [12]: Cytotoxicity against mouse RAW264.7 cells assessed as inhibition of cell growth incubated for 72 hrs by MTT assay. The series is classed as toxicity, cell-based.
Series [13] deals with Trypanosoma cruzi. Nature of the series: Induction of apoptosis in Trypanosoma cruzi Y strain trypomastigotes assessed as late apoptosis at 1 times IC50 incubated for 24 hrs by Annexin V-FITC/7AAD staining based flow cytometry. The series is classed as functional, organism-based.
For series [14], the system named is Trypanosoma cruzi. The series can be described thus: Induction of apoptosis in Trypanosoma cruzi Y strain trypomastigotes assessed as early apoptosis at 1 times IC50 incubated for 24 hrs by Annexin V-FITC/7AAD staining based flow cytometry. In kind it is functional, organism-based.
Series [15] is described as follows: Selectivity index, ratio of CC50 for cytotoxicity against mouse RAW264.7 cells to IC50 for antitrypanosomal activity against Trypanosoma cruzi Y strain trypomastigotes transfected in African green monkey Vero cells assessed as inhibition of parasite growth. In kind it is toxicity, cell-based. The conditions noted are these: read-out: Ratio CC50/IC50.
The subject of series [16] is Trypanosoma cruzi. Nature of the series: Induction of mitochondrial membrane potential loss in Trypanosoma cruzi Y strain trypomastigotes at 1 times IC50 incubated for 24 hrs by Rhodamine 123 staining based flow cytometry. The series is classed as organism-based.
For series [17], the system named is Trypanosoma cruzi. The series can be described thus: Induction of apoptosis in Trypanosoma cruzi Y strain trypomastigotes assessed as late apoptosis at 50.9 uM incubated for 24 hrs by Annexin V-FITC/7AAD staining based flow cytometry. In kind it is functional, organism-based.

In general, IC50 refers to the concentration that gives 50% inhibition. As usually defined, the CC50 is the concentration that lowers cell viability or growth by half. In the case of `C/C(=N\Nc1nc(-c2ccc(Cl)c(Cl)c2)cs1)c1ccc(Cl)c(Cl)c1Cl`, the result in series [1], in series [6], in series [9], in series [10], in series [13] and in [14] was Active. The result in series [16] and in series [17] was Active. Moreover, the selectivity ratio worked out at 1.39 in series [2], 1.76 in [7] and 1.76 in [15]. Also, the 50% inhibitory concentration (IC50) in [3] was found to be 32.1 µM; in series [5] it was 25.4 µM; in [11], 25.4 µM. Also, the outcome in series [4] and in series [8] was inactive. Besides, the cytotoxic concentration (CC50) at 72 h in series [12] came out at 44.9 µM.

With `C/C(=N\Nc1nc(-c2ccc(Cl)cc2)cs1)c1ccc(Cl)c(Cl)c1Cl`, the selectivity ratio came to 3.73 in [2], 4.55 in series [7] and 12.1 in series [15]. In addition, the IC50 in series [3] came out at 10.6 µM; in [5] it was 8.71 µM; in series [11], 3.27 µM. In [12], the CC50 at 72 h is 39.6 µM.

Turning to `COc1ccc(-c2csc(N/N=C(\C)c3ccc(Cl)c(Cl)c3Cl)n2)cc1`, the selectivity ratio in [2] is 3.43; in series [7], 3.45; in [15], 0.87. The figures for the concentration for half-maximal inhibition (IC50) in [3], in series [5] and in series [11] were 7.88 µM, 7.84 µM and 30.9 µM, respectively. Besides, the CC50 at 72 h in [12] came to 27.1 µM.

Turning to `COc1ccc(-c2csc(N/N=C(\C)c3ccc(Cl)cc3Cl)n2)cc1`, the outcome in [1], in series [6], in series [10], in series [13], in series [14] and in [16] was Active. In addition, the figures for the selectivity ratio in series [2], in series [7] and in series [15] were 12.4, 11.8 and 0.95, respectively. Further, the figures for the 50% inhibitory concentration (IC50) in series [3], in series [5] and in series [11] were 3.48 µM, 3.65 µM and 45.3 µM, respectively. Moreover, the result in [4] and in series [8] was inactive. For the same molecule, the CC50 at 72 h in series [12] worked out at 43.1 µM.

As to `C/C(=N\Nc1nc(-c2ccc(Br)cc2)cs1)c1ccc(Cl)c(Cl)c1Cl`, the results for the selectivity ratio in [2] and in series [7] were 5.68 and 5, respectively. Moreover, the IC50 in [3] was found to be 5.25 µM; in [5], 5.96 µM. For the same molecule, in series [12], the half-maximal cytotoxic concentration (CC50) at 72 h came to 29.9 µM.

Turning to `C/C(=N\Nc1nc(-c2ccc(Cl)cc2)cs1)c1ccc(Cl)cc1Cl`, the selectivity ratio in [2] was found to be 7.3; in series [7] it was 5.21; in series [15] it was 3.07. Besides, the results for the IC50 in [3], in series [5] and in [11] were 7.55 µM, 10.6 µM and 17.9 µM, respectively. Besides, in series [12], the CC50 at 72 h was found to be 55.1 µM.

Turning to `C/C(=N\Nc1nc(-c2ccccc2)cs1)c1ccc(Cl)cc1Cl`, the selectivity ratio in series [2] was 5.76; in [7], 2; in series [15] it was 0.93. Also, the concentration for half-maximal inhibition (IC50) is 7.42 µM in series [3], 21.3 µM in [5] and 45.9 µM in series [11]. Besides, the cytotoxic concentration (CC50) at 72 h in series [12] was 42.8 µM.

On to `O=C(Cn1ccnc1[N+](=O)[O-])NCc1ccccc1` [BENZNIDAZOLE], for which the results for the selectivity ratio in [2], in series [7] and in [15] were 0.77, 7.83 and 1.07, respectively. Also, the IC50 stood at 56.9 µM in series [3], 5.64 µM in [5] and 41 µM in series [11]. Besides, in series [12], the CC50 at 72 h was 44.2 µM.

Turning to `C/C(=N\Nc1nc(-c2ccc(-c3ccccc3)cc2)cs1)c1ccc(Cl)cc1Cl`, the selectivity ratio in series [2] was 3.96; in [7], 5.38; in series [15] it was 7.58. Also, the half-maximal inhibitory concentration (IC50) is 20.2 µM in series [3], 14.9 µM in series [5] and 10.6 µM in series [11]. For the same molecule, the CC50 at 72 h in [12] was 80.1 µM.

For the molecule `C/C(=N\Nc1nc(-c2ccc(F)cc2)cs1)c1ccc(Cl)c(Cl)c1Cl`, the outcome in series [1], in [4], in series [6], in series [8], in series [13] and in [14] was Active. The selectivity ratio was determined as 2.17 in series [2], 1.51 in series [7] and 1.96 in series [15]. Besides, the figures for the concentration for half-maximal inhibition (IC50) in [3], in series [5] and in [11] were 19.4 µM, 27.9 µM and 21.5 µM, respectively. The outcome in [10] and in series [16] was inactive. Moreover, in series [12], the CC50 at 72 h came out at 42.2 µM.

On to `C/C(=N\Nc1nc(-c2ccc([N+](=O)[O-])cc2)cs1)c1ccc(Cl)c(Cl)c1Cl`, for which the selectivity ratio in [2] amounted to 3.05; in series [7] it was 1.95. The values for the 50% inhibitory concentration (IC50) in series [3] and in series [5] were 28.9 µM and 45.3 µM, respectively. The half-maximal cytotoxic concentration (CC50) at 72 h in [12] was 88.5 µM.

Take `C/C(=N\Nc1nc(-c2ccc(Cl)cc2Cl)cs1)c1ccc(Cl)c(Cl)c1Cl`: the selectivity ratio in series [2] was determined as 4.35; in series [7] it was 2.67; in series [15] it was 8.89. In addition, the IC50 in series [3] came out at 8.33 µM; in series [5] it was 13.6 µM; in [11], 4.08 µM. Also, the cytotoxic concentration (CC50) at 72 h in [12] was 36.3 µM.

Take `C/C(=N\Nc1nc(-c2ccccc2)cs1)c1ccc(Cl)c(Cl)c1Cl`: the selectivity ratio in series [2] was found to be 2.18; in series [7], 1.46; in [15] it was 2.61. Also, the half-maximal inhibitory concentration (IC50) came out at 13.8 µM in [3], 20.6 µM in [5] and 11.5 µM in series [11]. In series [12], the CC50 at 72 h came to 30.2 µM.

For the molecule `C/C(=N\NC1NC(=O)CS1)c1ccc(Cl)cc1Cl` (stereo unspecified), the IC50 in [11] was 1.12 µM.

Take `C/C(=N\Nc1nc(-c2ccc(-c3ccccc3)cc2)cs1)c1ccc(Cl)c(Cl)c1Cl`: the selectivity ratio is 7.22 in series [2], 4.83 in series [7] and 23.6 in series [15]. Besides, the concentration for half-maximal inhibition (IC50) in series [3] stood at 8.62 µM; in series [5], 12.9 µM; in series [11], 2.64 µM. For the same molecule, in [12], the CC50 at 72 h is 62.2 µM.

With `C/C(=N\Nc1nc(-c2cccc([N+](=O)[O-])c2)cs1)c1ccc(Cl)c(Cl)c1Cl`, the figures for the selectivity ratio in series [2] and in series [7] were 3.47 and 6.55, respectively. For the same molecule, the IC50 in [3] amounted to 8.42 µM; in series [5], 4.46 µM. The CC50 at 72 h in series [12] came out at 29.2 µM.
